# “Also recorded” adds a separate entry of the source.
# How the values were obtained:
# Type in all cases: in vivo, C57BL6/J mice
# [1] = system: cytokine production in mouse blood; experiment: Cytokine/chemokine levels in blood serum (Millipore 21-Plex, Luminex)
# Procedure: Mice received either a placebo, celastrol (3.0 mg/kg), or 17-AAG (10 mg/kg) by intraperitoneal injection. Blood samples were taken from all groups of mice at 0, 1, 3, 6, 24, 48, and 72 hours after administration of the placebo, celastrol, or 17-AAG. The blood samples were analyzed for cytokine production, including the production of granulocyte-macrophage colony-stimulating factor (GM-CSF), interferon-gamma (IFN-γ), interleukin-10 (IL-10), interleukin-12 subunit beta (IL-12p40), interleukin-12 heterodimer (IL-12p70), interleukin-12 homodimer (IL-12p80), vascular endothelial growth factor (VEGF), tumor necrosis factor-alpha (TNF-α), keratinocyte derived chemokine (KC), RANTES (Regulated upon Activation, Normal T-cell Expressed, and Secreted; CCL5), monocyte chemotactic protein-1 (MCP 1), macrophage inflammatory protein (MIP1β; CCL4), interleukin-4 (IL-4), interleukin-3 (IL-3), interleukin-2 (IL-2), interleukin-1 beta (IL-1β), interleukin-1 alpha (IL-1α), interleukin-9 (IL-9), interleukin-13 (IL-13), interleukin-17 (IL-17), interleukin-6 (IL-6), and interleukin-5 (IL-5). Blood serum was analyzed using a commercially available kit (e.g., Mouse cytokine/chemokine panel: 21-Plex; Millipore). Blood serum (50 μl) was assayed in duplicate using a commercially available cytokine/chemokine detection kit from Millipore following the protocol given with the product information. The final measurement was performed using a commercially available detector (e.g., computer-operated Luminex 100 IS system) and the results were expressed as pg/ml blood serum sample. Levels of cytokines in blood were quantitated as a concentration of the total volume of the sample.
# [2] = system: stem cell populations in blood (cd34+, cd45+, Sca-1+ cells); experiment: FACS of cells expressing stem cell markers CD34, CD45, Sca-1 in blood samples
# Procedure: Mice received either a placebo or triptolide (400 μg/kg) by intraperitoneal injection.
# Celastrol analogs administered included dihydrocelastrol, dihydrocelastrol diacetate, and pristimerol (dihydropristimerin). Mice received either a placebo or a celastrol analog (3.0 mg/kg) by intraperitoneal injection.
# (§1) Mice received either a placebo (PBS) or oridonin (3.0 mg/kg) by intraperitoneal injection.
# [3] = system: stem cell populations in bone marrow (cd34+, cd45+, Sca-1+ cells); experiment: FACS of cells expressing stem cell markers CD34, CD45, Sca-1 in bone marrow samples; settings: 24 hours post treatment
# Procedure: as §1
# [4] = i.p. celastrol 3.0 mg/kg or 17-AAG 10 mg/kg, 72 hour time course
# [5] = i.p. celastrol 3.0 mg/kg or 17-AAG 10 mg/kg, sampled 0-72 h
# [6] = i.p. celastrol 3.0 mg/kg or 17-AAG 10 mg/kg, sampled 0-72 h, vs placebo control
# [7] = celastrol analog 3.0 mg/kg i.p., 24 hours post treatment (so in the source)
# [8] = celastrol analog 3.0 mg/kg i.p.
# [9] = oridonin 3.0 mg/kg i.p., 48 hours post treatment
smiles,measurement,setting,value
"C=CCNC1=C2C[C@@H](C)C[C@H](OC)[C@H](O)[C@@H](C)/C=C(\C)[C@H](OC(N)=O)[C@@H](OC)/C=C\C=C(/C)C(=O)NC(=CC1=O)C2=O [Formula 17-AAG, 17-allylamino-17-demethoxygeldanamycin]",level of TNF-α compared to placebo control,"[1]; 17-AAG 10 mg/kg i.p., by 24 hours post treatment",declined below levels seen in the placebo control
same,level of MCP1 compared to placebo control,"[1]; 17-AAG 10 mg/kg i.p., over the course of the experiment",not significantly different
same,level of IL-17 compared to placebo control,[1]; i.p. celastrol 3.0 mg/kg (throughout 72 hours) or 17-AAG 10 mg/kg (up to 48 hours),consistently high
same,level of IFN-γ compared to placebo control,[1]; [4],remained elevated up to 72 hours
same,level of IL-1β compared to placebo control,[1]; [4],remained elevated up to 72 hours
same,level of IL-3 compared to placebo control,[1]; [4],remained elevated up to 72 hours
same,level of IL-4 compared to placebo control,[1]; [4],remained elevated up to 72 hours
same,level of IL-5 compared to placebo control,[1]; [4],remained elevated up to 72 hours
same,level of IL-10 compared to placebo control,[1]; [4],remained elevated up to 72 hours; also recorded: had risen again by 72 hours
same,level of IL-12p40 compared to placebo control,[1]; [4],elevated again at 24 hours
same,level of IL-12p70 compared to placebo control,[1]; [4],remained elevated up to 72 hours
same,level of IL-12p80 compared to placebo control,[1]; [4],remained elevated up to 72 hours
same,time by which GM-CSF (elevated pre treatment) declined to placebo control levels,[1]; [5],≤ 6 h
same,time by which IL-1α returned to levels seen in the placebo control,[1]; [5],≤ 24 h
same,time by which IL-2 returned to levels seen in the placebo control,[1]; [5],≤ 6 h
same,time by which IL-6 returned to levels seen in the placebo control,[1]; [5],≤ 24 h
same,time by which IL-9 (elevated pre treatment) declined to placebo control levels,[1]; [5],≤ 6 h
same,time by which IL-13 returned to levels seen in the placebo control,[1]; [5],≤ 6 h
same,time by which KC returned to levels seen in the placebo control,[1]; [5],≤ 24 h
same,time by which MIP1β returned or declined to placebo control levels,[1]; [5],≤ 6 h
same,time by which RANTES returned to levels seen in the placebo control,[1]; [5],up to 72 hours
same,time by which VEGF returned to levels seen in the placebo control,[1]; [5],≤ 6 h
same,time of peak level of IFN-γ post treatment,[1]; [6],around 24 hours
same,time of peak level of IL-1α post treatment,[1]; [6],around 6 hours
same,time of peak level of IL-1β post treatment,[1]; [6],around 24 hours
same,time of peak level of IL-2 post treatment,[1]; [6],around 3 hours
same,time of peak level of IL-3 post treatment,[1]; [6],around 24 hours
same,time of peak level of IL-4 post treatment,[1]; [6],around 24 hours
same,time of peak level of IL-5 post treatment,[1]; [6],around 24 hours
same,time of peak level of IL-6 post treatment,[1]; [6],around 6 hours
same,time of peak level of IL-10 post treatment,[1]; [6],around 24 hours
same,time of peak level of IL-12p70 post treatment,[1]; [6],around 24 hours
same,time of peak level of IL-12p80 post treatment,[1]; [6],around 24 hours
same,time of peak level of IL-13 post treatment,[1]; [6],around 3 hours
same,time of peak level of KC post treatment,[1]; [6],around 6 hours
same,time of peak level of MCP1 post treatment,[1]; [6],around 24 hours
same,time of peak level of MIP1β post treatment,[1]; [6],around 3 hours
same,time of peak level of RANTES post treatment,[1]; [6],around 48 hours
same,time of peak level of TNF-α post treatment,[1]; [6],around 3 hours
same,time of peak level of VEGF post treatment,[1]; [6],around 3 hours
Cc1c(O)c(O)cc2c1CC=C1[C@@]2(C)CC[C@@]2(C)[C@@H]3C[C@](C)(C(=O)O)CC[C@]3(C)CC[C@]12C [dihydrocelastrol],"Sca-1+ cells, percent of the population of blood cells",[2]; [7],0.4%
same,"cd34+ cells, percent of the population of blood cells",[2]; [7],approximately 0.6%
same,"cd45+ cells, percent of the population of blood cells",[2]; [7],about 0.19%
same,fold increase of percentage of Sca-1+ cells in blood over control,[2]; [7],~10 fold
same,fold increase of percentage of cd34+ cells in blood over control,[2]; [7],~4 fold
same,fold increase of percentage of cd45+ cells in blood over control,[2]; [7],~10 fold
same,"Sca-1+ cells, percent of the population of bone marrow cells",[3]; [8],0.14%
same,"cd34+ cells, percent of the population of bone marrow cells",[3]; [8],0.15%
same,"cd45+ cells, percent of the population of bone marrow cells",[3]; [8],0.04%
same,change of percentage of cd45+ cells in bone marrow compared to untreated control,[3]; [8],slight increase
same,fold increase of percentage of Sca-1+ cells in bone marrow over control,[3]; [8],~3 fold
same,fold increase of percentage of cd34+ cells in bone marrow over control,[3]; [8],~3 fold
C=C1C(=O)[C@]23[C@H](O)[C@H]1CC[C@H]2[C@@]12CO[C@]3(O)[C@@H](O)[C@@H]1C(C)(C)CC[C@@H]2O [oridonin],"Sca-1+ cells, percent of the population of blood cells",[2]; [9],0.14%
same,"cd34+ cells, percent of the population of blood cells",[2]; [9],approximately 0.18%
same,fold increase of percentage of Sca-1+ cells in blood over control,[2]; [9],~1.4 fold
same,fold increase of percentage of cd34+ cells in blood over control,[2]; [9],~1.8 fold
same,"CD34 cells, percent of the population of bone marrow cells",[3]; oridonin 3.0 mg/kg i.p.,greater than 0.5%
same,"Sca-1+ cells, percent of the population of bone marrow cells",[3]; oridonin 3.0 mg/kg i.p.,about 0.5%
same,fold increase of percentage of Sca-1+ cells in bone marrow over control,[3]; oridonin 3.0 mg/kg i.p.,≥ 10 fold
same,fold increase of percentage of cd34+ cells in bone marrow over control,[3]; oridonin 3.0 mg/kg i.p.,≥ 10 fold

# Reference: patent publication US20110218143A1, “COMPOSITIONS AND METHODS FOR TISSUE REPAIR” (UNIVERSITY OF FLORIDA RESEARCH FOUNDATION, priority 2007, published 2011)
